Source: a melting point compilation (Tetko et al.; mined from patent text by program, amines drawn as free bases though some values may be those of a salt)

SMILES | melting point
COc1ccccc1N1CCN(CCCNC2=CC(=O)N(C)S(=O)(=O)N2C)CC1 | 137 to 139 °C
CNC(=O)N1CCC(c2nn(-c3ccc(C(F)(F)F)cc3)c3ccccc23)CC1 | 150 to 152 °C
CC12CC(NC(=O)OCC(Cl)(Cl)Cl)C3C(CCC4CC(O)CCC43C)C1CCC2C(=O)O (stereo unspecified) | 212 to 220 °C
CN(C)C=C1CCN(c2ccccc2)c2ccccc2C1=O | 131 to 133 °C
COc1ccc(-c2nc3cc(Cl)c(Cl)cc3n2C(=O)OCc2ccccc2)cc1NS(=O)(=O)c1cccs1 | 195 to 198 °C
O=C(NCCCC[C@H](NC(=O)OCc1ccccc1)C(=O)Nc1ccc(-c2ccc(C(=O)O)c(=O)[nH]2)cc1)OCc1ccccc1 | 199 to 200 °C
O=C(O)CN(CC(=O)c1ccccc1)c1c(C(=O)O)[nH]c2cc(Cl)cc(Cl)c12 | 235 to 237 °C
CCCc1nc2c(N)nc3cccnc3c2n1C1(OC)CCCCC1 | 187 to 188 °C
COc1ccc(C2(CCN3CCC(c4nc5ccccc5s4)CC3)CCN(C(=O)c3ccccc3)C2)cc1OC (stereo unspecified) | 60 to 62 °C
Nc1c(F)c(N2CCC(c3ccccn3)C2)c(F)c2c1c(=O)c(C(=O)O)cn2C1CC1 (stereo unspecified) | 206 to 208 °C
CCOc1ccc(Nc2ncc(C(=O)O)c(=O)[nH]2)cc1 | 250 to 252 °C
N#CC1CCN1C(c1ccccc1)c1ccccc1 (stereo unspecified) | 104 to 105 °C
CCOC(=O)/C=C/c1nc(COc2ccc(CCl)cc2OC)c(C)o1 | 107 to 108 °C
Clc1ccc2c(c1)C(c1ccccc1)=NCc1nnc(C(Cl)Cl)n1-2 | 193 to 196 °C
COC(=O)c1ccc(C(=O)Nc2cccc(Nc3nc(-c4cccnc4)cs3)c2)cc1 | 237 °C
N#CCc1cc(Br)ccc1Sc1ccccc1 | 118 to 120 °C
CN(C1CCN(Cc2ccccn2)CC1)S(=O)(=O)c1ccc(Nc2nccc(Nc3ccc(F)cc3)n2)cc1 | 202 to 204 °C
COCCc1cccc2oc(C(=O)Nc3ccc(-c4ccc(S(=O)(=O)NC(C(=O)OC)C(C)C)cc4)cc3)c(C)c12 (stereo unspecified) | 67 to 70 °C
C=CCS(=O)(=O)c1ccc(N2CC=C(c3ccc(Cl)c(Cl)c3)N2)cc1 | 198 °C
Cc1ccc(CNC(=O)c2cc(Cl)cc3cc(C)oc23)cc1 | 130 to 132 °C
Cc1cc(C2=NOC(c3cc(Cl)cc(Cl)c3)(C(F)(F)F)C2)ccc1C(=O)NC1CON(C)C1=O (stereo unspecified) | 87 °C
COC1CCC2(C)C(=CCC3C4CCC(=O)C4(C)CCC32)C1 (stereo unspecified) | 133 to 135 °C
CCN1c2ncccc2C(N(C)C)=Nc2c(C)cc(C)nc21 | 150 to 152 °C
CCN1CCC2(c3cccc(O)c3)Cc3[nH]c(C(=O)Nc4ccccc4)c(C)c3CC2C1 (stereo unspecified) | 271 to 272 °C
COC(=O)C1=C(C)NC(C)=C(C(=O)OC)C1c1ccccc1CC(OC)OC | 113 to 114 °C
COc1cccc(C#Cc2ccncc2)c1 | 33 to 35 °C

SMILES | melting point
CS(=O)(=O)NC(=O)CNC(=O)NCCCCC1CCSS1 (stereo unspecified) | 157 to 158 °C
O=C(O)C1CCCn2c(=O)n(CS)c(=O)n21 (stereo unspecified) | 158 °C
CCCCCCn1nc(-c2ccc(C(F)(F)F)cc2)cc1CCC(=O)c1ccc(OCC(=O)O)c(C)c1 | 118 to 123 °C
CC(CO)Nc1c([N+](=O)[O-])cnc2ccccc12 (stereo unspecified) | 207 to 211 °C
O=[N+]([O-])c1cc2c(Cl)ncnc2s1 | 112 °C
O=C(O)c1cn(Cc2ccccc2)c2cc(Cl)c(F)cc2c1=O | 250 °C
NC(=S)N1CCN(c2ccccc2)CC1 | 178 to 179 °C
CCCCCCCNC(=O)N(C)c1cccc(-c2ccc(CCC(=O)O)cc2)n1 | 108 °C
COC(=O)CCCCCCCC(=O)CCC(=O)COC(C)=O | 64 to 65 °C
Cc1oc(-c2ccccc2)nc1COc1ccc(C=C2SC(=O)NC2=O)cn1 | 225 to 226 °C
CCn1nc(C)c([N+](=O)[O-])c1C(N)=O | 175 to 177 °C
CCOc1nn(CCOc2c(CC)cccc2CC(=O)O)cc1C(=O)NCc1ccc(Cl)cc1Cl | 129 to 131 °C
COc1ccc(CSCC(=O)NO)cc1 | 107 °C
Cc1nnc(-c2ccc3occ(-c4cccc(OC(F)(F)F)c4)c3n2)o1 | 146 to 147 °C
CCC1(c2cccc(O)c2)CCCCN(C)C1 (stereo unspecified) | 128 to 133 °C
CN1CCOc2cccc3nc4c(c1c23)CCCC4 | 97 to 98 °C
CCOC(=O)CCc1ccc(C)nc1 | 36 to 37 °C
Cc1nc2ncnn2c2c1CCN2Cc1ccccc1 | 170 to 172 °C
COC=C1C(=O)N(OCc2ccccc2)C(=O)c2ccccc21 | 161 to 162 °C
COc1cc(C(=O)O)cc(OC)c1N(C)C | 65 to 69 °C
CCN(CC)C(=O)n1cnc(S(=O)(=O)CC2CCCCC2)n1 | 40 to 46 °C
CCN(CC)CC#CCCC(=O)C(O)(c1ccccc1)C1CCCCC1 (stereo unspecified) | 112 to 115 °C
CCCn1nc2c(N)nc3ccccc3c2c1CC | 219 to 220 °C
COC(=O)c1ccc(Cc2cc3cc(Cl)ccc3[nH]2)cc1 | 118 °C
Cc1cc(C)n(C)c1C(=O)c1cccnc1 | 195 to 197 °C
